{"source": "ChEMBL document CHEMBL3526033", "about": "“Identification of human liver cytochrome P450 enzymes involved in the metabolism of SCH 530348 (Vorapaxar), a potent oral thrombin protease-activated receptor 1 antagonist” (Drug Metab Dispos, 2011)", "type_in_all_cases": "ADME", "key": {"Cytochrome P450 2C9": {"molecular_target": "Cytochrome P450 2C9 (Homo sapiens, UniProt P11712)", "sequence (P11712 whole entry)": "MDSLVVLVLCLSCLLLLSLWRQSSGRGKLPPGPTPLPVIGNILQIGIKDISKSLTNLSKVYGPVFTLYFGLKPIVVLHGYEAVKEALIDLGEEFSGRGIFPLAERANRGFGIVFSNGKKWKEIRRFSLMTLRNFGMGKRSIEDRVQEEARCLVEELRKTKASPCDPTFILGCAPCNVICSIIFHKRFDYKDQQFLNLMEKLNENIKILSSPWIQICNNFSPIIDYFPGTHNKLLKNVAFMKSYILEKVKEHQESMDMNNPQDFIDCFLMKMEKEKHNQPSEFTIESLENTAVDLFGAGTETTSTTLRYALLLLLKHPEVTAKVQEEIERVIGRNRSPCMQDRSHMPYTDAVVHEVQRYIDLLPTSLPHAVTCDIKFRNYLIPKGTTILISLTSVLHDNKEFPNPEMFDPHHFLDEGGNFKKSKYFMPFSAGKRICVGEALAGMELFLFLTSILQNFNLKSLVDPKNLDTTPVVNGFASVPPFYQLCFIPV", "test": "Activity of human recombinant CYP2C9 assessed as enzyme-mediated drug metabolism treated with 25 uM vorapaxar after 120 mins by LC-MS/MS analysis in presence of NADPH", "conditions": "2 h"}, "[1]": {"test": "Drug level in human intestine microsomes treated with 25 uM vorapaxar after 120 mins by LC-MS/MS analysis in presence of NADPH", "conditions": "2 h"}, "Cytochrome P450 1B1": {"molecular_target": "Cytochrome P450 1B1 (Homo sapiens, UniProt Q16678)", "sequence (Q16678 whole entry)": "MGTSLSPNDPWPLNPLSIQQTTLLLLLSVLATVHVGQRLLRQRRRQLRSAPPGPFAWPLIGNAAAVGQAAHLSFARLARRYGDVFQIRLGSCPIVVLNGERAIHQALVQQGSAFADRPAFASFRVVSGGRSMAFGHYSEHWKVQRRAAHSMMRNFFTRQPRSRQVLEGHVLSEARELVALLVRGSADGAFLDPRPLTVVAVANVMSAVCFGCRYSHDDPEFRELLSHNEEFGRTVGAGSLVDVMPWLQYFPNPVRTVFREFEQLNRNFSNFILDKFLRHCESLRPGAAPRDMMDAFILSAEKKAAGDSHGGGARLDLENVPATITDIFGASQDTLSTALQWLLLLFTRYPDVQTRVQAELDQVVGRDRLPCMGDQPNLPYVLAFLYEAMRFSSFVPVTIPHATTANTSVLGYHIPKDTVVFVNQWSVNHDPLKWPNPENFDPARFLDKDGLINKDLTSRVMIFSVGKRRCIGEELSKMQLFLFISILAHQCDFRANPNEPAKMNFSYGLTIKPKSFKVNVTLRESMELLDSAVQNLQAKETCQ", "test": "Activity of human recombinant CYP1B1 assessed as enzyme-mediated drug metabolism treated with 25 uM vorapaxar after 120 mins by LC-MS/MS analysis in presence of NADPH", "conditions": "2 h"}, "Cytochrome P450 3A4 [2]": {"molecular_target": "T1, Cytochrome P450 3A4 (Homo sapiens, UniProt P08684)", "T1 sequence (P08684 whole entry)": "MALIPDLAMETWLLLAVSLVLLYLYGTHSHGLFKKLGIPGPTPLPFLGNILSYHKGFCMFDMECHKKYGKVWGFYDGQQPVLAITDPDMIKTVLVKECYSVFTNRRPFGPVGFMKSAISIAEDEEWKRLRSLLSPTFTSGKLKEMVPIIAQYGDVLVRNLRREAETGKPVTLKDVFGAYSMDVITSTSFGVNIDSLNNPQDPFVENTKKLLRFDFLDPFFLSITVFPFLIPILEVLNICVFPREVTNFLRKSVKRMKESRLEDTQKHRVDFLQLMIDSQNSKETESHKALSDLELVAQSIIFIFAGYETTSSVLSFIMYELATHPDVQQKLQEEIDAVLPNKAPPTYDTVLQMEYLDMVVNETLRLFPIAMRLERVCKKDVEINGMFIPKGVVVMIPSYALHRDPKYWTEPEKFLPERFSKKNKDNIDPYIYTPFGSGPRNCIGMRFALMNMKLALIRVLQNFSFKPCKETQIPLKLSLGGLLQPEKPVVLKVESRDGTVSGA", "test": "Drug metabolism assessed as human recombinant CYP3A4-mediated 2-hydroxyethyl (1R,3aR,4aR,6R,8aR,9S,9aS)-9-((E)-2-(5-(3-fluorophenyl)pyridin-2-yl)vinyl)-1-methyl-3-oxododecahydronaphtho[2,3-c]furan-6-ylcarbamate formation at 25 uM after 120 mins by LC-MS/MS analysis in presence of ketoconazole", "conditions": "recombinant enzyme, 2 h"}, "Cytochrome P450 2J2": {"molecular_target": "T2, Cytochrome P450 2J2 (Homo sapiens, UniProt P51589)", "T2 sequence (P51589 whole entry)": "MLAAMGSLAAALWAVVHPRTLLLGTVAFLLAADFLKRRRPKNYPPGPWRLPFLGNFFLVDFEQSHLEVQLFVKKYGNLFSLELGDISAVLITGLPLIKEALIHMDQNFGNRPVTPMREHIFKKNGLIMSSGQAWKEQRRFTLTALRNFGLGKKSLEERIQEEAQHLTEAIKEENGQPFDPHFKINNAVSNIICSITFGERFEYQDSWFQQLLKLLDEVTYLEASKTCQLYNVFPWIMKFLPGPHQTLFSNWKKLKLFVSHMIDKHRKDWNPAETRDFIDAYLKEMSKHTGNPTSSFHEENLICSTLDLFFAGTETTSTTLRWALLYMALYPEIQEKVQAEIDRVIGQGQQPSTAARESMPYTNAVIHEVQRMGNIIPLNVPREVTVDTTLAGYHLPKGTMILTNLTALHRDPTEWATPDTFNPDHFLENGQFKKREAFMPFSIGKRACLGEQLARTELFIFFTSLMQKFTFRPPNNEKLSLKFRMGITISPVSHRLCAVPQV", "test": "Drug metabolism assessed as human recombinant CYP2J2-mediated 2-hydroxyethyl (1R,3aR,4aR,6R,8aR,9S,9aS)-9-((E)-2-(5-(3-fluorophenyl)pyridin-2-yl)vinyl)-1-methyl-3-oxododecahydronaphtho[2,3-c]furan-6-ylcarbamate formation at 25 uM after 120 mins by LC-MS/MS analysis in presence of ketoconazole", "conditions": "recombinant enzyme, 2 h"}, "Cytochrome P450 3A4 [3]": {"molecular_target": "T1, Cytochrome P450 3A4", "test": "Drug metabolism assessed as human recombinant CYP3A4-mediated 2-hydroxyethyl (1R,3aR,4aR,6R,8aR,9S,9aS)-9-((E)-2-(5-(3-fluorophenyl)pyridin-2-yl)vinyl)-1-methyl-3-oxododecahydronaphtho[2,3-c]furan-6-ylcarbamate formation at 25 uM after 120 mins by LC-MS/MS analysis in presence of astemizole", "conditions": "recombinant enzyme, 2 h"}, "Liver microsome [4]": {"test_system": "Liver microsome", "test": "Drug metabolism in human liver microsomes assessed as (3R,3aS,4S,4aR,7R,8aR,9aR)-7-amino-4-((E)-2-(5-(3-fluorophenyl)pyridin-2-yl)vinyl)-3-methyldecahydronaphtho[2,3-c]furan-1(3H)-one formation at 10 to 25 uM after 120 mins by LC-MS/MS analysis in presence of tranylcypromine", "conditions": "2 h"}, "Liver microsome [5]": {"test_system": "Liver microsome", "test": "Drug metabolism in human liver microsomes assessed as 2-hydroxyethyl (1R,3aR,4aR,6R,8aR,9S,9aS)-9-((E)-2-(5-(3-fluorophenyl)pyridin-2-yl)vinyl)-1-methyl-3-oxododecahydronaphtho[2,3-c]furan-6-ylcarbamate formation at 25 uM after 120 mins by LC-MS/MS analysis in presence of astemizole", "conditions": "2 h"}, "CYP2C9": {"molecular_target": "CYP2C9 (Homo sapiens, UniProt P11712)", "sequence (P11712 whole entry)": "as the sequence (P11712 whole entry) above", "test": "Activity of human recombinant CYP2C9 assessed as enzyme-mediated drug metabolism at 10 uM after 120 mins by LC-MS/MS analysis in presence of NADPH", "conditions": "read-out: Compound recovery"}, "Cytochrome P450 3A4 [6]": {"molecular_target": "T1, Cytochrome P450 3A4", "test": "Activity of human recombinant CYP3A4 assessed as enzyme-mediated drug metabolism at 10 uM after 120 mins by LC-MS/MS analysis", "conditions": "2 h"}, "Cytochrome P450 1A1 [7]": {"molecular_target": "T3, Cytochrome P450 1A1 (Homo sapiens, UniProt P04798)", "T3 sequence (P04798 whole entry)": "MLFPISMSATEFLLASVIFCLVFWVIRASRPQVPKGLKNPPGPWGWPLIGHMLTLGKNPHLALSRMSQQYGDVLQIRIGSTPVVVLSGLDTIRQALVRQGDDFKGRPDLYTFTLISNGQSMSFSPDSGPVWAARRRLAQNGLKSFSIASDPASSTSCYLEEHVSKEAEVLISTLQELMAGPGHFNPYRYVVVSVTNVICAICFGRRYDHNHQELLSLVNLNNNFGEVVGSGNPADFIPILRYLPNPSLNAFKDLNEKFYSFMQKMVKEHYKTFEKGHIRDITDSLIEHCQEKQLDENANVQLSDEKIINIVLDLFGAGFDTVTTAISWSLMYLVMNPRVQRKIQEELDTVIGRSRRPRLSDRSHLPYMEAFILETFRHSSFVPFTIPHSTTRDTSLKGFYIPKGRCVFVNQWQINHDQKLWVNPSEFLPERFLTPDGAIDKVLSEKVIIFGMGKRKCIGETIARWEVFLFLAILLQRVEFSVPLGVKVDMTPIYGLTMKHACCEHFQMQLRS", "test": "Activity of human recombinant CYP1A1 assessed as enzyme-mediated drug metabolism at 10 uM after 120 mins by LC-MS/MS analysis", "conditions": "2 h"}, "Cytochrome P450 1A1 [8]": {"molecular_target": "T3, Cytochrome P450 1A1", "test": "Activity of human recombinant CYP1A1 assessed as enzyme-mediated 2-hydroxyethyl (1R,3aR,4aR,6R,8aR,9S,9aS)-9-((E)-2-(5-(3-fluorophenyl)pyridin-2-yl)vinyl)-1-methyl-3-oxododecahydronaphtho[2,3-c]furan-6-ylcarbamate formation at 25 uM after 120 mins by LC-MS/MS analysis in presence of NADPH", "conditions": "2 h"}, "Liver microsome [9]": {"test_system": "Liver microsome", "test": "Drug metabolism in human liver microsomes assessed as (3R,3aS,4S,4aR,7R,8aR,9aR)-7-amino-4-((E)-2-(5-(3-fluorophenyl)pyridin-2-yl)vinyl)-3-methyldecahydronaphtho[2,3-c]furan-1(3H)-one formation per nmol of enzyme at 25 uM after 120 mins by LC-MS/MS analysis", "conditions": "2 h"}, "Cytochrome P450 4A11": {"molecular_target": "Cytochrome P450 4A11 (Homo sapiens, UniProt Q02928)", "sequence (Q02928 whole entry)": "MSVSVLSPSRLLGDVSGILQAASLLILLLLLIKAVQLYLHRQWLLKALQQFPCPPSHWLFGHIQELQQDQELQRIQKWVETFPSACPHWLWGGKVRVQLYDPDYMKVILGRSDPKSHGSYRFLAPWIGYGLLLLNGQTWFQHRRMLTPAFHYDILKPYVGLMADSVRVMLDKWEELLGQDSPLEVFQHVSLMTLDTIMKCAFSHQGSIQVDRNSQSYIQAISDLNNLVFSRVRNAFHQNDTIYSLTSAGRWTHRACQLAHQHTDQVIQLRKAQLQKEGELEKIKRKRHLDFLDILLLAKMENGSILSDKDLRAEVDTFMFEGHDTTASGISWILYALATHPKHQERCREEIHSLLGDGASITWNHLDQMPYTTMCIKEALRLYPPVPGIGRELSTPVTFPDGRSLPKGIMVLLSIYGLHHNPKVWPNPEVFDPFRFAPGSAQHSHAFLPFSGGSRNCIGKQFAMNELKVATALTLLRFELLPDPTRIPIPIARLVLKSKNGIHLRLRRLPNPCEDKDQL", "test": "Activity of human recombinant CYP4A11 assessed as enzyme-mediated 2-hydroxyethyl (1R,3aR,4aR,6R,8aR,9S,9aS)-9-((E)-2-(5-(3-fluorophenyl)pyridin-2-yl)vinyl)-1-methyl-3-oxododecahydronaphtho[2,3-c]furan-6-ylcarbamate formation at 25 uM after 120 mins by LC-MS/MS analysis in presence of NADPH", "conditions": "2 h"}, "Cytochrome P450 2D6": {"molecular_target": "Cytochrome P450 2D6 (Homo sapiens, UniProt P10635)", "sequence (P10635 whole entry)": "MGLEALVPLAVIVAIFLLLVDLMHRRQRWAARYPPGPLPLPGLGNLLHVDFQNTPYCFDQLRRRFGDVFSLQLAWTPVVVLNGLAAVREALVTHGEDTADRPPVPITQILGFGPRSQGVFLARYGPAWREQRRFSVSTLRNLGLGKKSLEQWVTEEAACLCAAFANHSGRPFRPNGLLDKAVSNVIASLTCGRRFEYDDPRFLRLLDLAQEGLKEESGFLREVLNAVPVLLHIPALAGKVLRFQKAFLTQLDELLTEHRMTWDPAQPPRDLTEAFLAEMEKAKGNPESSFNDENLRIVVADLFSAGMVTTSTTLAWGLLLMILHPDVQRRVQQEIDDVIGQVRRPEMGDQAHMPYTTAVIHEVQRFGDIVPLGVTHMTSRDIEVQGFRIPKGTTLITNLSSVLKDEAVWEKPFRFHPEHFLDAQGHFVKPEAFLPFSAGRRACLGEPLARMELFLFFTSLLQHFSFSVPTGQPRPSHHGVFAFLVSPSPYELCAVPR", "test": "Activity of human recombinant CYP2D6 assessed as enzyme-mediated drug metabolism at 10 uM after 120 mins by LC-MS/MS analysis", "conditions": "2 h"}}, "data": [{"compound": "C[C@H]1OC(=O)[C@@H]2C[C@@H]3C[C@H](NC(=O)OCCO)CC[C@H]3[C@H](/C=C/c3ccc(-c4cccc(F)c4)cn3)[C@H]12", "values": [{"measurement": "Drug metabolism", "setting": "Cytochrome P450 2C9", "value": "metabolite_detected"}, {"measurement": "Drug metabolism", "setting": "[1]", "value": "metabolite_detected"}, {"measurement": "Drug metabolism", "setting": "Cytochrome P450 1B1", "value": "metabolite_detected"}]}, {"compound": "CCOC(=O)N[C@@H]1CC[C@@H]2[C@@H](C1)C[C@H]1C(=O)O[C@H](C)[C@H]1[C@H]2/C=C/c1ccc(-c2cccc(F)c2)cn1", "note": "[VORAPAXAR]", "values": [{"measurement": "Drug metabolism", "setting": "Cytochrome P450 3A4 [2]", "value": "metabolite_not_detected"}, {"measurement": "Drug metabolism", "setting": "Cytochrome P450 2J2", "value": "metabolite_not_detected"}, {"measurement": "Drug metabolism", "setting": "Cytochrome P450 3A4 [3]", "value": "metabolite_not_detected"}, {"measurement": "Drug metabolism", "setting": "Liver microsome [4]", "value": "metabolite_not_detected"}, {"measurement": "Drug metabolism", "setting": "Liver microsome [5]", "value": "metabolite_not_detected"}, {"measurement": "remaining at 2 h, 10 µM", "setting": "CYP2C9", "value": 98.8, "unit": "%"}]}, {"compound": "CCOC(=O)N[C@@H]1CC[C@@H]2[C@@H](C1)C[C@H]1C(=O)O[C@H](C)[C@H]1[C@H]2/C=[14CH]/c1ccc(-c2cccc(F)c2)cn1", "values": [{"measurement": "Drug metabolism", "setting": "Cytochrome P450 3A4 [6]", "value": "metabolite_not_detected"}, {"measurement": "Drug metabolism", "setting": "Cytochrome P450 1A1 [7]", "value": "metabolite_not_detected"}, {"measurement": "Drug metabolism", "setting": "Cytochrome P450 1A1 [8]", "value": "metabolite_detected"}, {"measurement": "Vmax", "setting": "Liver microsome [9]", "value": 30, "unit": "pmol/min"}, {"measurement": "Drug metabolism", "setting": "Cytochrome P450 4A11", "value": "metabolite_detected"}, {"measurement": "Drug metabolism", "setting": "Cytochrome P450 2D6", "value": "metabolite_not_detected"}]}]}
